Test results from ChEMBL document CHEMBL5550136, “Total synthesis/semi-synthesis of natural isopentenyl flavonoids with inhibitory activity on NLRP3 inflammasome” (Bioorg Med Chem Lett, 2024).
pIC50: −log10 of the molar value. The source made the active and inactive calls. No cut-off for these calls is given here.

Tests used:
[1] = target: NACHT, LRR and PYD domains-containing protein 3 (Mus musculus) (UniProt Q8R4B8); test: Inhibition of NLRP3 inflammasome activation in mouse BMDM cells assessed as inhibition of mature IL-1beta release by immunoblotting analysis; assay type: cell-based
[2] = test system: BMDM; test: Effect on pro-caspase-1 protein expression in mouse BMDM cells; assay type: functional, cell-based
[3] = target: NACHT, LRR and PYD domains-containing protein 3 (Mus musculus, UniProt Q8R4B8); test: Inhibition of NLRP3 inflammasome activation in mouse BMDM cells assessed as reduction in IL-1beta release by ELISA; assay type: cell-based
[4] = target: NACHT, LRR and PYD domains-containing protein 3 (Mus musculus) (UniProt Q8R4B8); test: Inhibition of NLRP3 inflammasome activation in mouse BMDM cells assessed as inhibition of caspase-1 release by immunoblotting analysis; assay type: cell-based
[5] = test system: BMDM; test: Effect on pro-IL-1beta protein expression in mouse BMDM cells; assay type: functional, cell-based
[6] = test system: BMDM; test: Effect on NLRP3 protein expression in mouse BMDM cells; assay type: functional, cell-based

Chain of NACHT, LRR and PYD domains-containing protein 3 (Q8R4B8 whole entry, the tested form may be a part): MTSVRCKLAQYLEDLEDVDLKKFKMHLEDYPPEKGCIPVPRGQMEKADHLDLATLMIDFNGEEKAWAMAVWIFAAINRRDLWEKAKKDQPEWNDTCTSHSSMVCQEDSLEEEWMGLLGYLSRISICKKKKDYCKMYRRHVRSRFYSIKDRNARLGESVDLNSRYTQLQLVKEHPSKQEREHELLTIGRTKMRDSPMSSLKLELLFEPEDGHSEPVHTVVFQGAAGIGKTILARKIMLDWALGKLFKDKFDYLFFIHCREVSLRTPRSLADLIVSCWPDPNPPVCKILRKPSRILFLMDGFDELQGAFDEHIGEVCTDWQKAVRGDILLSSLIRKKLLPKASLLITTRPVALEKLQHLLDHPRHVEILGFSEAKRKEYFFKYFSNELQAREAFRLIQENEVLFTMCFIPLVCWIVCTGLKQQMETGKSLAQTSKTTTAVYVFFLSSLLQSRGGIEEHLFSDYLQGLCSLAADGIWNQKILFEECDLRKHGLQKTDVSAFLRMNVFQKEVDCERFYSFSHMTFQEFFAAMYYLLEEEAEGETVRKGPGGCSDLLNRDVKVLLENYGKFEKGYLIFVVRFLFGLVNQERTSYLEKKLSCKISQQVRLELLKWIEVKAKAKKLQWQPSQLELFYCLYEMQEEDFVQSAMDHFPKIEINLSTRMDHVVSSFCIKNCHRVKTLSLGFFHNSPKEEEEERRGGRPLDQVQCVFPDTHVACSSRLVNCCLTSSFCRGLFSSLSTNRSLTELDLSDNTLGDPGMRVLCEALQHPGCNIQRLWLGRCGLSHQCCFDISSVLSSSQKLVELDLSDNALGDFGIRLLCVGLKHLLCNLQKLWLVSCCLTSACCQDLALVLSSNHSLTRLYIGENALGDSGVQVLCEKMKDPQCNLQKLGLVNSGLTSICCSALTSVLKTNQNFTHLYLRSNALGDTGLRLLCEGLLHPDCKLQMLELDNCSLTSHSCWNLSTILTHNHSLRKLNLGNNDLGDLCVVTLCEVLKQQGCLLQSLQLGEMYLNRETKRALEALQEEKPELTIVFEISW
Chain of NACHT, LRR and PYD domains-containing protein 3 (Mus musculus) (Q8R4B8 whole entry, the tested form may be a part): as above

CC(C)=CCC/C(C)=C/Cc1c(O)cc2oc(-c3ccc(O)cc3)c(O)c(=O)c2c1O [MACARANGIN]
inhibition [1]: Dose-Dependent Effect | Activity [2]: inactive | pIC50 [3]: 5.47 | inhibition [4]: Dose-Dependent Effect | Activity [5]: inactive | Activity [6]: inactive

CC(C)=CCc1c(O)cc2oc(-c3ccc(O)c(O)c3)c(O)c(=O)c2c1O [GANCAONIN P]
pIC50 [3]: 4.69

COc1cc(-c2cc(=O)c3c(O)cc4c(c3o2)C=CC(C)(C)O4)ccc1O
pIC50 [3]: < 4.00

O=c1c(O)c(-c2ccc(O)cc2)oc2cc(O)cc(O)c12 [KAEMPFEROL]
pIC50 [3]: < 4.00

COc1cc(C2CC(=O)c3c(O)cc(O)c(CC=C(C)C)c3O2)c(O)cc1O (stereo not given) [KUSHENOL W]
pIC50 [3]: 4.76

COc1ccc(-c2cc(=O)c3c(O)cc(O)c(CC=C(C)C)c3o2)cc1
pIC50 [3]: 4.94

COc1ccc(-c2cc(=O)c3c(O)cc4c(c3o2)C=CC(C)(C)O4)cc1
pIC50 [3]: < 4.00

CC(C)=CCc1c(O)cc2oc(-c3ccc(O)cc3)c(O)c(=O)c2c1O [LICOFLAVONOL]
pIC50 [3]: 5.07

O=c1c(O)c(-c2ccc(O)c(O)c2)oc2cc(O)cc(O)c12 [QUERCETIN]
pIC50 [3]: 4.43

COc1cc(-c2cc(=O)c3c(O)cc(O)c(CC=C(C)C)c3o2)ccc1O
pIC50 [3]: 4.39
